Assay results from patent US20250034170A1, “SMALL MOLECULE MODULATORS OF GLUCOCEREBROSIDASE ACTIVITY AND USES THEREOF” (Vanqua Bio, Inc., priority 2021, published 2025).

Molecular target: T1, GCase (Homo sapiens, UniProt P04062)
T1 construct: endogenous in cells; host or cells: HeLa cells
T1 sequence (P04062 40-536): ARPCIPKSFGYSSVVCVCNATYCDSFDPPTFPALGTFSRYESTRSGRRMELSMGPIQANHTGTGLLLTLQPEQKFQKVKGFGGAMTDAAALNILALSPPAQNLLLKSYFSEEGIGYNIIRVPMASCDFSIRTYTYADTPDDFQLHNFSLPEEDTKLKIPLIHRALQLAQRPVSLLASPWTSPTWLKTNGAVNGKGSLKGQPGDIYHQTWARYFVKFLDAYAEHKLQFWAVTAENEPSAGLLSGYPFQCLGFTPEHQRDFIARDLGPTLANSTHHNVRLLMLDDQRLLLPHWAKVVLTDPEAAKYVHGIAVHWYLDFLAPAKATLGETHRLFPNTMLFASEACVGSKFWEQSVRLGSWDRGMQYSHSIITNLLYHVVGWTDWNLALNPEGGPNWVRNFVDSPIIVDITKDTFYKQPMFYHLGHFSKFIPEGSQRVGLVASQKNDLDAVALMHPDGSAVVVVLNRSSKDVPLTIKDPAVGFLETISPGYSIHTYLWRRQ
Assay: activation of GCase in a live cell PFB assay in HELA cells
Type: cell-based
Settings: EC50 given as range classes
Method: Exemplary compounds were evaluated for activation of GCase in a live cell PFB assay in HELA cells (essentially as described in Ysselstein et al., “LRRK2 kinase activity regulates lysosomal glucocerebrosidase in neurons derived from Parkinson's disease patients” Nature Communications (2019) 10:5570). […] EC50 ranges: A: <10 μM; B: >10-50 μM; C: >50-100 μM; D: >100 μM.

Row | EC50 | Compound
1 | 10 to 50 µM | O=C1CC2(CN1c1cnc(C(F)(F)F)cn1)C1CCC2CN(c2cnc3cnn(CC(F)F)c3n2)C1 (stereo not shown) [Cmpd 805]
2 | 10 to 50 µM | O=C1CC2(CN1c1cncc(C(F)(F)F)n1)C1CCC2CN(c2cnc3cnn(CC(F)F)c3n2)C1 (stereo not shown) [Cmpd 806]
3 | < 10 µM | FC(F)Cn1ncc2ncc(N3CCC4(CCN(c5ccc(C(F)(F)F)nc5)CC4)CC3)nc21 [Cmpd 807]
4 | 10 to 50 µM | FC(F)Cn1ncc2ncc(N3CCC4(CCN(c5cncc(C(F)(F)F)c5)CC4)CC3)nc21 [Cmpd 808]
5 | < 10 µM | FC(F)Cn1ncc2ncc(N3CCC4(CCN(c5cccc(C(F)(F)F)n5)CC4)CC3)nc21 [Cmpd 809]
6 | 10 to 50 µM | FC(F)Cn1ncc2ncc(N3CCC4(CCN(c5ccc(C(F)(F)F)cn5)CC4)CC3)nc21 [Cmpd 810]
7 | < 10 µM | FC(F)Cn1ncc2ncc(N3CCC4(CCN(c5cc(C(F)(F)F)ccn5)CC4)CC3)nc21 [Cmpd 811]
8 | < 10 µM | FC(F)Cn1ncc2ncc(N3CCC4(CCN(c5ccnc(C(F)(F)F)c5)CC4)CC3)nc21 [Cmpd 812]
9 | < 10 µM | FC(F)Cn1ncc2ncc(N3CCC4(CCN(c5cncc(C(F)(F)F)n5)CC4)CC3)nc21 [Cmpd 813]
10 | < 10 µM | FC(F)Cn1ncc2ncc(N3CCC4(CCN(c5cnc(C(F)(F)F)cn5)CC4)CC3)nc21 [Cmpd 814]
11 | 10 to 50 µM | CC1(C)CC2(CCN(c3cnc4cnn(CC(F)F)c4n3)CC2)C(=O)N1c1ccc(C(F)(F)F)nc1 [Cmpd 815]
12 | 10 to 50 µM | CC1(C)N(c2ccc(C(F)(F)F)nc2)C(=O)CC12CCN(c1cnc3cnn(CC(F)F)c3n1)CC2 [Cmpd 816]
13 | < 10 µM | O=C1N(c2ccnc(C(F)(F)F)c2)C(=O)C2(CCN(c3cnc4cnn(CC(F)F)c4n3)CC2)N1Cc1cc(F)cc(F)c1 [Cmpd 817]
14 | < 10 µM | O=C1N(c2ccc(C(F)(F)F)nc2)C(=O)C2(CCN(c3cnc4cnn(CC(F)F)c4n3)CC2)N1Cc1cc(F)cc(F)c1 [Cmpd 818]
15 | < 10 µM | O=C1N(c2cnc(C(F)(F)F)nc2)C(=O)C2(CCN(c3cnc4cnn(CC(F)F)c4n3)CC2)N1Cc1cc(F)cc(F)c1 [Cmpd 819]
16 | < 10 µM | O=C1N(c2cncc(C(F)(F)F)n2)C(=O)C2(CCN(c3cnc4cnn(CC(F)F)c4n3)CC2)N1Cc1cc(F)cc(F)c1 [Cmpd 820]
17 | < 10 µM | O=C1N(c2cnc(C(F)(F)F)cn2)C(=O)C2(CCN(c3cnc4cnn(CC(F)F)c4n3)CC2)N1Cc1cc(F)cc(F)c1 [Cmpd 821]
18 | > 100 µM | CCOCCN1C(=O)N(c2cc(C(F)(F)F)ccn2)C(=O)C12CCN(c1cnc3cnn(CC(F)F)c3n1)CC2 [Cmpd 822]
19 | 10 to 50 µM | FC(F)(F)c1ncc(N2CCC3(CCN(c4cncc(-c5nncs5)n4)CC3)C2)cn1 [Cmpd 823]
20 | 10 to 50 µM | FC(F)(F)c1cnc(N2CCC3(CCN(c4cncc(-c5nncs5)n4)CC3)C2)cn1 [Cmpd 824]
21 | 10 to 50 µM | FC(F)(F)c1ccc(N2CCC3(CCN(c4cncc(-c5nncs5)n4)CC3)C2)nn1 [Cmpd 825]
22 | 10 to 50 µM | FC(F)Cn1ncc2cnc(N3CCC4(CCN(c5ccc(C(F)(F)F)nc5)C4)CC3)nc21 [Cmpd 827]
23 | 10 to 50 µM | O=C1CC2(CCN(c3ncc4cnn(CC(F)F)c4n3)CC2)CN1c1ccc(C(F)(F)F)nc1 [Cmpd 828]
24 | < 10 µM | Cc1nn(CC(F)F)c2nc(N3CCC4(CCN(c5cnc(C(F)(F)F)nc5)C4)CC3)cnc12 [Cmpd 829]
25 | < 10 µM | Cc1nn(CC(F)F)c2nc(N3CCC4(CCN(c5ccc(C(F)(F)F)nc5)C4)CC3)ncc12 [Cmpd 830]
26 | 10 to 50 µM | Cc1nn(CC(F)F)c2nc(N3CCC4(CC3)CCN(c3ccc(C(F)(F)F)nc3)C4=O)ncc12 [Cmpd 831]
27 | < 10 µM | Cc1nn(CC(F)F)c2nc(N3CCC4(CC3)CC(=O)N(c3ccc(C(F)(F)F)nc3)C4)ncc12 [Cmpd 832]
28 | < 10 µM | COc1nn(CC(F)F)c2nc(N3CCC4(CCN(c5ccc(C(F)(F)F)nc5)C4)CC3)cnc12 [Cmpd 833]

Same assay, conditions: activation of GCase, EC50 ranges

Row | Compound | EC50
29 | COc1nc2cnn(CC(F)F)c2nc1N1CCC2(CC1)CCN(c1ccc(C(F)(F)F)nc1)C2=O [Cmpd 834] | < 10 µM
30 | COc1nn(CC(F)F)c2nc(N3CCC4(CC3)CCN(c3ccc(C(F)(F)F)nc3)C4=O)cnc12 [Cmpd 835] | < 10 µM
31 | COc1nc2cnn(CC(F)F)c2nc1N1CCC2(CC1)CC(=O)N(c1ccc(C(F)(F)F)nc1)C2 [Cmpd 836] | < 10 µM
32 | COc1nn(CC(F)F)c2nc(N3CCC4(CC3)CC(=O)N(c3ccc(C(F)(F)F)nc3)C4)cnc12 [Cmpd 837] | < 10 µM
33 | O=C1N(c2nc(C(F)(F)F)co2)CCC12CCN(c1cnc3cnn(CC(F)F)c3n1)CC2 [Cmpd 838] | 10 to 50 µM
34 | O=C1N(c2nnc(C(F)(F)F)o2)CCC12CCN(c1cnc3cnn(CC(F)F)c3n1)CC2 [Cmpd 839] | < 10 µM

More lines, now with the values ahead:

Row | EC50 | Compound
35 | < 10 µM | O=C1N(c2nnc(C(F)(F)F)s2)CCC12CCN(c1cnc3cnn(CC(F)F)c3n1)CC2 [Cmpd 840]
36 | < 10 µM | O=C1N(c2cnc(C(F)(F)F)s2)CCC12CCN(c1cnc3cnn(CC(F)F)c3n1)CC2 [Cmpd 841]
37 | 10 to 50 µM | Cc1cnc(C(F)(F)F)nc1N1CCC2(CCN(c3cnc4cnn(CC(F)F)c4n3)CC2)C1=O [Cmpd 842]
38 | 10 to 50 µM | O=C1N(Cc2cnc(C(F)(F)F)nc2)CCC12CCN(c1cnc3cnn(CC(F)F)c3n1)CC2 [Cmpd 843]
39 | < 10 µM | O=C1N(Cc2ccnc(C(F)(F)F)n2)CCC12CCN(c1cnc3cnn(CC(F)F)c3n1)CC2 [Cmpd 844]
40 | 10 to 50 µM | Cn1cc(N2CCC3(CCN(c4cnc5cnn(CC(F)F)c5n4)CC3)C2=O)ccc1=O [Cmpd 845]
41 | 10 to 50 µM | CCn1cc(N2CCC3(CCN(c4cnc5cnn(CC(F)F)c5n4)CC3)C2=O)ccc1=O [Cmpd 846]
42 | 10 to 50 µM | CCn1nc(N2CCC3(CCN(c4cnc5cnn(CC(F)F)c5n4)CC3)C2=O)ccc1=O [Cmpd 847]
43 | 10 to 50 µM | CC(C)N1C(=O)N(c2ccc(C(F)(F)F)nc2)C(=O)C12CCN(c1cnc3cnn(CC(F)F)c3n1)CC2 [Cmpd 848]
44 | < 10 µM | CCN1C(=O)N(c2ccc(C(F)(F)F)nc2)C(=O)C12CCN(c1cnc3cnn(CC(F)F)c3n1)CC2 [Cmpd 849]
45 | < 10 µM | CCN1C(=O)N(c2ccnc(C(F)(F)F)c2)C(=O)C12CCN(c1cnc3cnn(CC(F)F)c3n1)CC2 [Cmpd 850]
46 | < 10 µM | CCC1N(c2ccc(C(F)(F)F)cn2)C(=O)CC12CCN(c1cnc3cnn(CC(F)F)c3n1)CC2 (stereo not shown) [Cmpd 851]
47 | 10 to 50 µM | CCC1N(c2ccc(C(F)(F)F)nc2)C(=O)CC12CCN(c1cnc3cnn(CC(F)F)c3n1)CC2 (stereo not shown) [Cmpd 852]
48 | 10 to 50 µM | CCC1N(c2ccnc(C(F)(F)F)c2)C(=O)CC12CCN(c1cnc3cnn(CC(F)F)c3n1)CC2 (stereo not shown) [Cmpd 853]
49 | 10 to 50 µM | CC[C@H]1N(c2ccnc(C(F)(F)F)c2)C(=O)CC12CCN(c1cnc3cnn(CC(F)F)c3n1)CC2 [Cmpd 854]
50 | 10 to 50 µM | CC[C@@H]1N(c2ccnc(C(F)(F)F)c2)C(=O)CC12CCN(c1cnc3cnn(CC(F)F)c3n1)CC2 [Cmpd 855]
51 | 10 to 50 µM | O=C1CC2(CCN(c3cnc4cnn(C5COC5)c4n3)CC2)CN1c1ccc(C(F)(F)F)nc1 [Cmpd 856]

Row | EC50 | Compound
52 | < 10 µM | O=C1CC2(CCN(c3cnc4cnn(C5COC5)c4n3)CC2)CN1c1ccc(C(F)(F)F)cn1 [Cmpd 857]
53 | 10 to 50 µM | CCC1N(c2ccc(C(F)(F)F)nc2)C(=O)CC12CCN(c1cnc3cnn(C4COC4)c3n1)CC2 (stereo not shown) [Cmpd 858]
54 | 10 to 50 µM | CCC1N(c2ccc(C(F)(F)F)cn2)C(=O)CC12CCN(c1cnc3cnn(C4COC4)c3n1)CC2 (stereo not shown) [Cmpd 859]
55 | 10 to 50 µM | CCN1C(=O)N(c2cnc3cnn(CC(F)F)c3n2)C(=O)C12CCN(c1ccc(C(F)(F)F)cn1)CC2 [Cmpd 860]
56 | < 10 µM | CCN1C(=O)N(c2cnc3cnn(CC(F)F)c3n2)C(=O)C12CCN(c1ccc(C(F)(F)F)nc1)CC2 [Cmpd 861]
57 | > 100 µM | O=C1CC2(CCN(c3cnc4cnn(C5COC5)c4n3)CC2)CN1c1cnc(C(F)(F)F)cn1 [Cmpd 862]
58 | < 10 µM | O=C1C[C@@]2(CC3CCC2CN3c2cnc3cnn(CC(F)F)c3n2)CN1c1ccc(C(F)(F)F)cn1 (stereo partly shown) [Cmpd 863]
59 | 10 to 50 µM | O=C1C[C@]2(CC3CCC2CN3c2cnc3cnn(CC(F)F)c3n2)CN1c1ccc(C(F)(F)F)cn1 (stereo partly shown) [Cmpd 864]
60 | 10 to 50 µM | O=C1CC2(CC3CCC2CN3c2cnc3cnn(CC(F)F)c3n2)CN1c1ccc(C(F)(F)F)nc1 (stereo not shown) [Cmpd 865]
61 | 10 to 50 µM | CCN1C(=O)N(c2ccc(C(F)(F)F)nc2)C(=O)C12CCN(c1cnc3cnn(C4COC4)c3n1)CC2 [Cmpd 866]
62 | > 100 µM | CC(C)N1C(=O)N(c2ccc(C(F)(F)F)nc2)C(=O)C12CCN(c1cnc3cnn(C4COC4)c3n1)CC2 [Cmpd 867]
63 | 10 to 50 µM | CCN1C(=O)N(c2ccc(C(F)(F)F)cc2)C(=O)C12CCN(c1cnc3cnn(CC(F)F)c3n1)CC2 [Cmpd 868]
64 | 10 to 50 µM | CCN1C(=O)N(c2ccc(C(F)(F)F)cc2)C(=O)C12CCN(c1cnc3cnn(C4COC4)c3n1)CC2 [Cmpd 869]
65 | > 100 µM | CCN1C(=O)N(c2ccc(C(F)(F)F)nc2)C(=O)C12CCN(c1cnc3c(C)nn(C4COC4)c3n1)CC2 [Cmpd 870]
66 | 10 to 50 µM | CCN1C(=O)N(c2ccc(C(F)(F)F)nc2)C(=O)C12CCN(c1cnc3c(C)nn(CC(F)F)c3n1)CC2 [Cmpd 871]
67 | < 10 µM | CCN1C(=O)N(c2ccc(C(F)(F)F)cc2)C(=O)C12CCN(c1cnc3c(C)nn(CC(F)F)c3n1)CC2 [Cmpd 872]
